The values below come from paper PMC4961458 (eLife, 2016).

Where two headings read alike, the source gives them in different places.

Series [1] relates to Ishikawa endometrial cells. Put plainly: Alkaline phosphatase activity in Ishikawa endometrial cells. The class given is cell-based, human. The note with it: absence of estrogen.
For a further series, the system named is MCF7 ER.WT cells. The experiment in a line: Cell viability, MCF7 ER.WT cells (7 days). It counts as cell-based. To be noted: Homo sapiens; for EC50: absence of estrogen; for IC50: presence of estrogen (0.1 nM), read-out: Cell viability IC50, ER.WT +E2.
The target in a further series is T1, PR-B (Homo sapiens, UniProt P06401).
T1 construct: cloning full-length human PRb into pCDNA; expressed in transfected cells; host or cells: HEPG2
T1 sequence (P06401 1-933): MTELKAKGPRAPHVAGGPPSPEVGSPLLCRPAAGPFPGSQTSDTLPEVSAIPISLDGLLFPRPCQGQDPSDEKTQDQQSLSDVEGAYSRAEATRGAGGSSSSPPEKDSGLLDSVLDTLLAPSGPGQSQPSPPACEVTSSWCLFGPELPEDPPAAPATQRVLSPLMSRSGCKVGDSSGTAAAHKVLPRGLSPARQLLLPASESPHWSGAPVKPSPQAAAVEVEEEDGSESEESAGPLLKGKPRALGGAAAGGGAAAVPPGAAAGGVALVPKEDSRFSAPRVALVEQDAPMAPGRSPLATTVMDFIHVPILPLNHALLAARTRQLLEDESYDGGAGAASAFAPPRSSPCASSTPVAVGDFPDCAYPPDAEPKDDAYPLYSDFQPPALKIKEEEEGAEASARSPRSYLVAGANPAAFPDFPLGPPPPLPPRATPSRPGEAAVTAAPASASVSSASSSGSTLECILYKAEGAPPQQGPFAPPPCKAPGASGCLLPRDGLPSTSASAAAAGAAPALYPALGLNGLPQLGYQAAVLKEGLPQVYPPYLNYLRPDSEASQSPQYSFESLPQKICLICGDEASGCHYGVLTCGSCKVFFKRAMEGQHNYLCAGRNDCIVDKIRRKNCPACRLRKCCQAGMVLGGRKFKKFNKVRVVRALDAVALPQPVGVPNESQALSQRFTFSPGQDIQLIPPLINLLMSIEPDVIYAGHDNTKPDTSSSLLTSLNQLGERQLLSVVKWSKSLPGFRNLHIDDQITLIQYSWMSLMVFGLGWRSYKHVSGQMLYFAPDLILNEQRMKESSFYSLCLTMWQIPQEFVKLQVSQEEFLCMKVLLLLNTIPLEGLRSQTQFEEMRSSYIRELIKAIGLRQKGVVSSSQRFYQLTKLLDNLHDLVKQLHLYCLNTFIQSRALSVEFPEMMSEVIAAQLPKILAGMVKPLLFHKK
Put plainly: PR-B transcriptional reporter assay, agonist mode (HEPG2 cells). To be noted: % of maximal R5020-stimulated activity. The class given is cell-based. In general terms: A reporter such as luciferase makes a cellular process visible.

The subject of another series is MCF7 cells. The experiment in a line: MCF7 cell viability assay (CellTiter-Glo). It counts as cell-based, human. The note with it: for IC50 / EC50: Homo sapiens; for EC50: absence of exogenous estradiol, Figure 1E, read-out: MCF7 cell viability EC50 (-E2).
Another series has as its system MCF7 tumors. Put plainly: MCF7 xenograft efficacy. The class given is in vivo, mice. To be noted: […]60 day E2 pellets; GDC-0810 100 mg/kg/day p.o.; fulvestrant clinically relevant dose (50 then 25 mg/kg s.c.) and 200 mg/kg 3 times per week; 28 days.
Series [2] has as its system Doxycycline-inducible MCF7 cells (Vector). The experiment in a line: Cell viability, doxycycline-inducible MCF7 cells, vector control. The class given is cell-based. To be noted: Homo sapiens, MCF7, 168 h, 7 days; for IC50: 0.1 nM E2, 10 ng/ml doxycycline; for EC50: estrogen-depleted medium, 10 ng/ml doxycycline, read-out: Cell viability EC50, Vector -E2.
Series [3] deals with TamR1 tumors. The experiment in a line: Tamoxifen-resistant MCF7 (TamR1) xenograft efficacy. The note with it: 0.18 mg 60 day E2 pellets; tamoxifen 120 mg/kg/day p.o.; fulvestrant 200 mg/kg 3x/week s.c.; GDC-0810 10, 30 or 100 mg/kg/day p.o.; 27 days. The class given is in vivo, mice. On the procedure: We previously generated a tamoxifen-resistant xenograft model, TamR1, by chronically treating MCF7 tumor bearing mice with tamoxifen until a resistant tumor emerged ([Lai et al., 2015]). […] These experiments were conducted in mice with relatively high levels of circulating estradiol, with estradiol being delivered via 0.72 mg 60 day release E2 pellets that are reported by the manufacturer (Innovative Research) to deliver between 300 and 400 pg/ml estradiol. Under these conditions the high E2 reduces the steady state ERα protein levels, thus confounding the readout of ERα protein as a pharmacodynamic endpoint (Figure 5—figure supplement 1). […] These pellets are sufficient to support tumor growth but only modestly reduce ERα levels (Figure 5—figure supplement 1).
Figure 5. […] (A) Tamoxifen-resistant MCF7 tumors were implanted in animals supplemented with 60-day release 0.18 mg 17β-estradiol pellets. […] S.c. is sub-cutaneous dosing, and p.o. is per os (by mouth) oral gavage dosing. * Denotes significance (p<0.05) compared to Vehicle in 1-Way ANOVA and Dunnett's Multiple Comparison Test. Figure 5—figure supplement 1. Effects of estradiol pellet on ERα levels in MCF7-TamR1 xenograft tumors. TamR1 tumor fragments were implanted into Crl:NU-Foxn1^nu mice implanted with either 0.72 or 0.18 mg/60 day 17-β estradiol pellets. Once tumors were established pellets were removed from 1 group. 28 days after pellet removal ERα protein levels were determined for 4 tumors from each group. Data is presented as average compared to Vehicle (-E2). Error is standard deviation. * Denotes significance (p<0.05) compared to Vehicle (-E2) by T-test. [drawing 7] […] (A) ERα protein levels were determined by western blot analysis of tumors 8 hr following the final compound treatment on day 27. […] KI-67 expression, quantified from IHC analysis. […]
The tamoxifen-resistant derivative of the ER+ human tumor cell line, MCF7 (TamR1) was developed by Seragon Pharmaceuticals, Inc ([Lai et al., 2015]). […] The tumors which continued to grow under these conditions were serially passaged and evaluated for continued tamoxifen resistance. […]

Series [4] relates to TamR1 tumors. Details: method as in Lai et al., 2015. To be noted: 0.72 mg 60 day release E2 pellets; GDC-0810 p.o. 100 mg/kg/day; fulvestrant SC 200 mg/kg 3x/week; ref Lai et al., 2015; cited from earlier work.
The mark [5] stands for this setting: MCF7, 168 h, 7 days, read-out: Cell viability EC50, ER.WT -E2.
[6] abbreviates: 120 h, MCF7, 5 d incubation, read-out: Cell viability CellTiter-Glo IC50.
Setting [7] is: MCF7, 120 h, read-out: MCF7 cell viability IC50 (+ 0.1nM E2), presence of 0.1 nM estradiol, 5 day, Figure 1F.

Broadly, the EC50 is the concentration at which the effect is half-maximal. Usually IC50 stands for the point on the concentration scale where inhibition reaches its midpoint. As usually defined, the Emax is the greatest response seen or fitted, relative to the assay's reference.

For the compound `CC/C(=C(\c1ccc(O)cc1)c1ccc(OCCN(C)C)cc1)c1ccccc1` [4-OH Tam, 4-hydroxytamoxifen], the Alkaline phosphatase activity result in series [1] is reported as “robustly increases alkaline phosphatase activity”. In addition, the EC50 was determined as 3.2 nM with MCF7 ER.WT cells (setting [5]) and 3.9 nM in the series with MCF7 cells (MCF7, 120 h, 5 day). The IC50 in the series on MCF7 ER.WT cells (MCF7, 168 h, 7 days) turned out to be 19 nM; with MCF7 cells (setting [6]), 0.53 ± 0.25 nM; in the series with MCF7 cells (setting [7]) it was 30 nM. The maximum response (Emax) at PR-B came out at 0.39 ± 0.23%. Moreover, the “Cell viability CellTiter-Glo Emax” value in the series on MCF7 cells (MCF7, 5 d incubation) is 48.0 ± 4.7 % E2.

For the compound `C[C@]12CC[C@@H]3c4ccc(O)cc4C[C@@H](CCCCCCCCC[S+]([O-])CCCC(F)(F)C(F)(F)F)[C@H]3[C@@H]1CC[C@@H]2O` (stereo partly shown) [Fulvestrant], the “Tumor growth response, MCF7 xenograft” value in the series on MCF7 tumors is “only modest tumor growth inhibition”. The IC50 in series [2] is 7.2 nM; in the series on MCF7 ER.WT cells (MCF7, 168 h, 7 days) it was 23 nM; with MCF7 cells (setting [6]) it was 0.56 ± 0.7 nM; with MCF7 cells (setting [7]), 9 nM. Besides, the EC50 in series [2] was found to be 0.8 nM; in the series on MCF7 ER.WT cells (setting [5]), 1.1 nM; in the series on MCF7 cells (MCF7, 120 h, 5 day) it was 0.5 nM. Further, in series [1], the Alkaline phosphatase activity entry was “shows no such effect”. Moreover, the “Tumor growth response, TamR1 xenograft, lower E2” value in the series on TamR1 tumors [3] was “resulted in regression of TamR1 tumors”. For the same compound, the “Cell viability CellTiter-Glo Emax” value in the series with MCF7 cells (MCF7, 5 d incubation) is recorded as 25.4 ± 3.7 % E2. Moreover, the “Tumor growth response, TamR1 xenograft, high E2” value with TamR1 tumors [4] is listed as “only modest tumor growth inhibition”.

In the case of `CC/C(=C(/c1ccc(/C=C/C(=O)O)cc1)c1ccc2[nH]ncc2c1)c1ccc(F)cc1Cl` [GDC-0810], in the series with MCF7 tumors, the “Tumor growth response, MCF7 xenograft” value is “caused tumor regressions”. Besides, the IC50 in series [2] came to 15 nM; in the series on MCF7 ER.WT cells (MCF7, 168 h, 7 days), 28 nM; in the series with MCF7 cells (setting [6]) it was 2.5 ± 2.1 nM; with MCF7 cells (setting [7]), 25 nM. Besides, the concentration for a half-maximal effect (EC50) in series [2] came out at 1 nM; in the series with MCF7 ER.WT cells (setting [5]) it was 1 nM; in the series with MCF7 ER.WT cells (MCF7, Figure 6—figure supplement 1D, read-out: Cell viability EC50, ER.WT (-E2)), 0.7 nM; in the series with MCF7 cells (MCF7, 120 h, 5 day), 1 nM. The Alkaline phosphatase activity entry in series [1] is on record as “modestly increases alkaline phosphatase activity”. Also, the Emax at PR-B is 0.35 ± 0.31%. Besides, the “Tumor growth response, TamR1 xenograft, lower E2” value in the series with TamR1 tumors [3] is listed as “induced regression at all doses tested”. Also, the “Cell viability CellTiter-Glo Emax” value in the series with MCF7 cells (MCF7, 5 d incubation) was 24.6 ± 3.3 % E2. Also, the “Tumor growth response, TamR1 xenograft, high E2” value in the series on TamR1 tumors [4] is “induced tumor regressions”.
